Data from US8158589B2, “Peptides with the capacity to bind to transforming growth factor β1 (TGF-β1)” (Proyecto Biomedicine Cima, S.L., priority 2003, dated 2012).
Ends that are not written are not given here.

Biological target: T1, TGF-β1 (Rattus norvegicus, UniProt P17246)
T1 construct: from tissue; host or cells: cornea of Long-Evans rats
Experiment: Corneal fibrosis and haze after 1 N NaOH damage, topical eye drops, photographs analysed with ImageJ
Type: in vivo, Long-Evans rats
Conditions: fifth formulation eye drops, treated right eye vs control left eye
Source text: Male Long-Evans rats aged 10 weeks were used, divided into 5 groups: • Group 1: 12 rats, 6 treated with dexamethasone and 6 treated with mitomycin C • Group 2: 12 rats, 6 treated with p17 of the first formulation (see section 6.1.2.b) and 6 treated with p144 of the first formulation (see section 6.1.2.b) • Group 3: 12 rats, 6 treated with p17 of the second formulation (see section 6.1.2.b) and 6 treated with p144 of the second formulation (see section 6.1.2.b) • Group 4: 12 rats, 6 treated with p17 of the third formulation (see section 6.1.2.b) and 6 treated with p144 of the third formulation (see section 6.1.2.b) • Group 5: 12 rats, 6 treated with p17 of the fourth formulation (see section 6.1.2.b) and 6 treated with p144 of the fourth formulation (see section 6.1.2.b) • Group 6: 12 rats, 6 treated with p17 of the fifth formulation (see section 6.1.2.b) and 6 treated with p144 of the fifth formulation (see section 6.1.2.b)
To perform the damage in the cornea, the animals were anesthetized with isoflurane and a 5 mm Whatman paper disc impregnated in 1 N NaOH for 30 seconds was applied to them in the central part of the eye. After the damage, they were washed with abundant physiological saline serum and an antibiotic ointment was applied to them to prevent possible infections in the affected area.
After conducting several in vivo studies with the previously described groups of animals, it could be concluded that the chemical damage occurring after the application of NaOH for 30 seconds caused an excessive lesion for the study which was to be conducted, therefore it was decided to conduct new experiments reducing the time to 15 seconds.
It was randomly established that the left eye of each animal would act as a control and that the right eye would be the treated eye, such that the same animals acts as a control in addition to being treated. It must be pointed out that all the animals received antibiotic treatment in both eyes daily only during the first week of the study for the purposes of avoiding microbial keratitis.
Starting from 0.15% sodium hyaluronate (Hyabak 10 mL, Thea) without preservatives: • p144: 20 mg were dissolved in 5 ml of eye drops, 40 μl of saturated concentrated NaOH were incorporated, stirring and adding in portions of 5 μl. It was sonicated until solubilization. To adjust the pH, 500 μl of 1M Hepes were added, such that the pH changed from 10.5 to 7 • p144 control: 40 μl of saturated NaOH and 500 μl of 1 M HEPES (final concentration of HEPES 50 mM) • p17: 20 mg were dissolved in 5 ml of the eye drops, it was sonicated until complete solubilization and it was incorporated to the vial with a 10 ml syringe and a blue needle to perforate the filter of the contained (final concentration 2 mg/ml) • p17 control: non-manipulated eye drops • Note: The formulations were maintained at 4° C. throughout the study.
The administration of the treatment was initiated twenty-four hours after the damage. After that time a follow-up of the damage was performed, which consisted of taking photographs at days 0, 7, 14, 21, 28 and 35. To take the photographs the animals were anesthetized with isoflurane. Photographs were taken of both the control eye (left) and of the treated eye (right) with and without fluorescein. The photographs with fluorescein allowed to observe the evolution of the epithelial closure of the generated lesion, whereas the photographs without fluorescein show the evolution of the haze of the lesioned area. […]

T1 sequence (P17246 279-390 limits assumed): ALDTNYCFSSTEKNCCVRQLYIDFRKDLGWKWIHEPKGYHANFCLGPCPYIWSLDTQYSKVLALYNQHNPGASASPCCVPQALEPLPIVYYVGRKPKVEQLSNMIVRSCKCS

KRIWFIPRSSWYERA [SEQ ID NO: 17, KRIWFIPRSSWYERA]
corneal haze: clear decrease
epithelial closure (fluorescein): clear decrease
